Experimental findings from PubChem BioAssay AID1259407 (Chemical Carcinogenesis Research Information System (CCRIS), 2018) are described below.

This data set deals with CCRIS mutagenicity, Ames/micronucleus/aberration tests. Put plainly: CCRIS mutagenicity studies.
Where [1] appears, read: Test System: AMES SALMONELLA TYPHIMURIUM, Strain/Indicator: TA98, Metabolic Activation: S-9, Method: PREINCUBATION
The mark [2] stands for this setting: Test System: AMES SALMONELLA TYPHIMURIUM, Strain/Indicator: TA100, Metabolic Activation: NONE, Method: PREINCUBATION
Where [3] appears, read: Test System: AMES SALMONELLA TYPHIMURIUM, Strain/Indicator: TA100, Metabolic Activation: S-9, Method: PREINCUBATION
Setting [4] is: Test System: AMES SALMONELLA TYPHIMURIUM, Strain/Indicator: TA1537, Metabolic Activation: NONE, Method: STANDARD PLATE.
Where [5] appears, read: Test System: AMES SALMONELLA TYPHIMURIUM, Strain/Indicator: TA98, Metabolic Activation: NONE, Method: STANDARD PLATE.
Setting [6] is: Test System: AMES SALMONELLA TYPHIMURIUM, Strain/Indicator: TA98, Metabolic Activation: RAT, LIVER, S-9, AROCLOR 1254, Method: STANDARD PLATE.
[7] abbreviates: Test System: AMES SALMONELLA TYPHIMURIUM, Strain/Indicator: TA100, Metabolic Activation: NONE, Method: STANDARD PLATE.
Where [8] appears, read: Test System: AMES SALMONELLA TYPHIMURIUM, Strain/Indicator: TA100, Metabolic Activation: RAT, LIVER, S-9, AROCLOR 1254, Method: STANDARD PLATE.
[9] abbreviates: Test System: AMES SALMONELLA TYPHIMURIUM, Strain/Indicator: TA1537, Metabolic Activation: RAT, LIVER, S-9, AROCLOR 1254, Method: STANDARD PLATE.

The source made the active and inactive calls. How the calls were made is not given here.

On to `c1ccc(-c2cccnc2)nc1`, for which the mutagenic call reads like this: (Test System: AMES SALMONELLA TYPHIMURIUM, Strain/Indicator: TA97, Metabolic Activation: RAT, LIVER, S-9, PHENOBARBITAL, Method: STANDARD PLATE) “active; positive”; (Test System: AMES SALMONELLA TYPHIMURIUM, Strain/Indicator: TA97, Metabolic Activation: RAT, LIVER, S-9, SODIUM PHENOBARBITAL, Method: PREINCUBATION) “active; positive”; (Test System: AMES SALMONELLA TYPHIMURIUM, Strain/Indicator: TA98, Metabolic Activation: RAT, LIVER, S-9, PHENOBARBITAL, Method: STANDARD PLATE) “inactive; negative”; (Test System: AMES SALMONELLA TYPHIMURIUM, Strain/Indicator: TA100, Metabolic Activation: RAT, LIVER, S-9, PHENOBARBITAL, Method: STANDARD PLATE) “inactive; negative”; (Test System: AMES SALMONELLA TYPHIMURIUM, Strain/Indicator: TA100, Metabolic Activation: RAT, LIVER, S-9, SODIUM PHENOBARBITAL, Method: PREINCUBATION) “active; positive”; (Test System: AMES SALMONELLA TYPHIMURIUM, Strain/Indicator: TA1535, Metabolic Activation: RAT, LIVER, S-9, PHENOBARBITAL, Method: STANDARD PLATE) “inactive; negative”. In addition, the mutagenic call runs as follows: (Test System: AMES SALMONELLA TYPHIMURIUM, Strain/Indicator: TA1537, Metabolic Activation: RAT, LIVER, S-9, PHENOBARBITAL, Method: STANDARD PLATE) “active; positive”; (Test System: AMES SALMONELLA TYPHIMURIUM, Strain/Indicator: TA1538, Metabolic Activation: RAT, LIVER, S-9, PHENOBARBITAL, Method: STANDARD PLATE) “inactive; negative”.

For the molecule `COC(=O)c1ccccc1N`, the mutagenic call is “inactive; negative” (Test System: AMES SALMONELLA TYPHIMURIUM, Strain/Indicator: TA97, Metabolic Activation: NONE, Method: PREINCUBATION); “inactive; negative” (Test System: AMES SALMONELLA TYPHIMURIUM, Strain/Indicator: TA97, Metabolic Activation: RAT, LIVER, S-9, AROCLOR 1254, Method: PREINCUBATION); “inactive; negative” (Test System: AMES SALMONELLA TYPHIMURIUM, Strain/Indicator: TA98, Metabolic Activation: NONE, Method: PREINCUBATION); “inactive; negative” under setting [1]; “inactive; negative” under setting [2]; “inactive; negative” under setting [3]. Besides, the mutagenic call (Test System: AMES SALMONELLA TYPHIMURIUM, Strain/Indicator: TA102, Metabolic Activation: NONE, Method: PREINCUBATION) is “inactive; negative”; the mutagenic call (Test System: AMES SALMONELLA TYPHIMURIUM, Strain/Indicator: TA102, Metabolic Activation: RAT, LIVER, S-9, AROCLOR 1254, Method: PREINCUBATION) is “inactive; negative”; the mutagenic call (Test System: UDS RODENT HEPATOCYTES, Strain/Indicator: THY INCORP (NON-S-PHASE), Metabolic Activation: NONE, Method: AUTORADIOGRAPHY) is “inactive; negative”.

On to `Cc1c[nH]c2ccccc12`, for which the mutagenic call is “inactive; negative” under setting [2] and “inactive; negative” (Test System: AMES SALMONELLA TYPHIMURIUM, Strain/Indicator: TA100, Metabolic Activation: RAT LIVER S-9, PHENOBARBITOL/BETA-NAPHTHOFLAVONE, Method: PREINCUBATION).

With `[N-]=[N+]=Nc1ccc2c(Nc3ccc(NS(=O)(=O)CCCN)cc3)c3ccc(N=[N+]=[N-])cc3nc2c1`, under setting [4], the mutagenic call is “active; positive”.

As for `C=C1[C@@H](O)[C@@H]2O[C@]3(CC[C@H](/C=C/[C@@H](C)[C@@H]4CC(C)=C[C@@]5(O[C@H](C[C@@](C)(O)C(=O)O)CCC5O)O4)O3)CC[C@H]2O[C@@H]1[C@@H](O)C[C@H](C)[C@H]1O[C@@]2(CCCCO2)CC[C@H]1C` (stereo not given in full), the mutagenic call runs as follows: (End Point: IN VITRO MICRONUCLEUS, Test System: HUMAN PERIPHERAL LYMPHOCYTES, Metabolic Activation: NONE) “active; positive”; (End Point: In vitro micronucleus, Test System: Chinese hamster ovary (CHO-K1) cells, Metabolic Activation: None) “inactive; negative”; (End Point: In vitro micronucleus, Test System: Chinese hamster ovary (CHO-K1) cells, Metabolic Activation: Rat, Liver, S-9, Phenobarbital and beta-naphthoflavone) “active; positive”; (End Point: In vitro micronucleus, Test System: Chinese hamster ovary (CHO-K1) cells, Metabolic Activation: Rat, Liver, S-9, Phenobarbital and beta-naphthoflavone, heat inactivated) “inactive; negative”; (End Point: In vitro micronucleus, Test System: Chinese hamster ovary (CHO-K1) cells, Metabolic Activation: Rat, Liver, S-9, Phenobarbital and beta-naphthoflavone, Method: FISH (fluorescein isothiocyanate isomer 1 (FITC)-conjugated peptide nucleic acid probe)) “active; positive (dose-dependent increase in percentage of centromer-positive micronucle”; (End Point: In vitro micronucleus, Test System: Human colon carcinoma Caco-2 cells, Metabolic Activation: None) “active; positive”. The mutagenic call is “inactive; negative” under setting [1]; “inactive; negative” under setting [3]; “active; positive” (Test System: CHINESE HAMSTER V-79, Strain/Indicator: V-79 (HGPRT)/6-THIOGUANINE, Metabolic Activation: NONE); “inactive; negative” (Test System: CHINESE HAMSTER V-79, Strain/Indicator: V-79 (HGPRT)/6-THIOGUANINE, Metabolic Activation: RAT, LIVER, HEPATOCYTES).

With `c1ccc2c(c1)OCCOCCOCCOCCO2`, the mutagenic call runs as follows: under setting [5], “inactive; negative”; under setting [6], “inactive; negative”; under setting [7], “inactive; negative”; under setting [8], “inactive; negative”; (Test System: AMES SALMONELLA TYPHIMURIUM, Strain/Indicator: TA1530, Metabolic Activation: NONE, Method: STANDARD PLATE) “inactive; negative”; (Test System: AMES SALMONELLA TYPHIMURIUM, Strain/Indicator: TA1530, Metabolic Activation: RAT, LIVER, S-9, AROCLOR 1254, Method: STANDARD PLATE) “inactive; negative”. Besides, the mutagenic call is “inactive; negative” under setting [4] and “inactive; negative” under setting [9].

Turning to `CCCCC/C=C/C=C/C=O`, the mutagenic call (Test System: AMES SALMONELLA TYPHIMURIUM, Strain/Indicator: TA98, Metabolic Activation: HAMSTER, LIVER, S-9, AROCLOR 1254, Method: STANDARD PLATE) is “inactive; negative”; the mutagenic call under setting [5] was “inactive; negative”; the mutagenic call under setting [6] was “inactive; negative”; the mutagenic call (Test System: AMES SALMONELLA TYPHIMURIUM, Strain/Indicator: TA100, Metabolic Activation: HAMSTER, LIVER, S-9, AROCLOR 1254, Method: STANDARD PLATE) was “inactive; negative”; the mutagenic call under setting [7] is “inactive; negative”; the mutagenic call under setting [8] is “inactive; negative”. The mutagenic call was “inactive; negative” (Test System: AMES SALMONELLA TYPHIMURIUM, Strain/Indicator: TA1535, Metabolic Activation: HAMSTER, LIVER, S-9, AROCLOR 1254, Method: STANDARD PLATE); “inactive; negative” (Test System: AMES SALMONELLA TYPHIMURIUM, Strain/Indicator: TA1535, Metabolic Activation: NONE, Method: STANDARD PLATE); “inactive; negative” (Test System: AMES SALMONELLA TYPHIMURIUM, Strain/Indicator: TA1535, Metabolic Activation: RAT, LIVER, S-9, AROCLOR 1254, Method: STANDARD PLATE); “inactive; negative” (Test System: AMES SALMONELLA TYPHIMURIUM, Strain/Indicator: TA1537, Metabolic Activation: HAMSTER, LIVER, S-9, AROCLOR 1254, Method: STANDARD PLATE); “inactive; negative” under setting [4]; “inactive; negative” under setting [9]. Moreover, the mutagenic call reads like this: (Test System: AMES SALMONELLA TYPHIMURIUM, Strain/Indicator: TA1538, Metabolic Activation: HAMSTER, LIVER, S-9, AROCLOR 1254, Method: STANDARD PLATE) “inactive; negative”; (Test System: AMES SALMONELLA TYPHIMURIUM, Strain/Indicator: TA1538, Metabolic Activation: NONE, Method: STANDARD PLATE) “inactive; negative”; (Test System: AMES SALMONELLA TYPHIMURIUM, Strain/Indicator: TA1538, Metabolic Activation: RAT, LIVER, S-9, AROCLOR 1254, Method: STANDARD PLATE) “inactive; negative”; (Test System: MOUSE LYMPHOMA, Strain/Indicator: L5178Y (TK+/TK-), Metabolic Activation: NONE, Method: SUSPENSION/PLATE) “inactive; negative. reevaluation of results: negative”; (Test System: MOUSE LYMPHOMA, Strain/Indicator: L5178Y (TK+/TK-), Metabolic Activation: RAT, LIVER, S-9, AROCLOR 1254, Method: SUSPENSION/PLATE) “inactive; negative. reevaluation of results: negative”.
